Experimental data: patent publication EP4782466A1, “FUSION PROTEIN FOR INACTIVATING CORONAVIRUS AND USE THEREOF” (priority 2023, dated 2025)

Assays:
[1] = tested on: SARS-CoV-2 prototype pseudovirus
[2] = tested on: SARS-CoV-2 Alpha pseudovirus
[3] = tested on: SARS-CoV-2 Beta pseudovirus
[4] = tested on: SARS-CoV-2 Gamma pseudovirus
[5] = tested on: SARS-CoV-2 Delta pseudovirus
[6] = tested on: SARS-CoV-2 Lambda pseudovirus
[7] = tested on: SARS-CoV-2 BA.1 pseudovirus
[8] = tested on: SARS-CoV-2 BA.2 pseudovirus
[9] = tested on: SARS-CoV-2 BA.2.2 pseudovirus
[10] = tested on: SARS-CoV-2 BA.2.9 pseudovirus
[11] = tested on: SARS-CoV-2 BA.2.12.1 pseudovirus
[12] = tested on: SARS-CoV-2 BA.2.75 pseudovirus
[13] = tested on: SARS-CoV-2 BA.3 pseudovirus
[14] = tested on: SARS-CoV-2 BA.4.6 pseudovirus
[15] = tested on: SARS-CoV-2 BA.5 pseudovirus
[16] = tested on: SARS-CoV-2 BF.7 pseudovirus
[17] = tested on: SARS-CoV-2 XBB pseudovirus
[18] = tested on: SARS-CoV-2 BQ.1 pseudovirus
[19] = tested on: coronavirus pseudoviruses such as 2019-nCoV; conditions: verified in Chinese Patent Application No. CN202180001804.1; cited from earlier work

CC[C@H](C)[C@H](NC(=O)[C@H](C)NC(=O)[C@H](CCC(=O)O)NC(=O)[C@H](CCC(=O)O)NC(=O)[C@H](CC(C)C)NC(=O)[C@H](CCCCN)NC(=O)[C@H](CCCCN)NC(=O)[C@H](CCSC)NC(=O)[C@H](CCC(=O)O)NC(=O)[C@H](Cc1ccc(O)cc1)NC(=O)[C@H](CCC(=O)O)NC(=O)[C@H](CC(C)C)NC(=O)[C@H](CC(=O)O)NC(=O)[C@H](CC(C)C)NC(=O)[C@H](Cc1ccccc1)NC(=O)[C@@H](NC(=O)[C@@H](NC(=O)[C@H](CC(N)=O)NC(=O)[C@@H](NC(=O)[C@H](CCC(N)=O)NC(=O)[C@H](CC(=O)O)NC(=O)[C@H](CC(C)C)NC(=O)[C@@H](N)CO)[C@@H](C)CC)C(C)C)[C@@H](C)O)C(=O)N[C@@H](CCCCN)C(=O)N[C@@H](CCCCN)C(=O)N[C@@H](CC(C)C)C(=O)N[C@@H](CCC(=O)O)C(=O)N[C@@H](CCC(=O)O)C(=O)N[C@@H](CO)C(=O)N[C@@H](Cc1ccc(O)cc1)C(=O)N[C@H](C(=O)N[C@@H](CC(=O)O)C(=O)N[C@@H](CC(C)C)C(=O)N[C@@H](CCCCN)C(=O)N[C@@H](CCC(=O)O)C(=O)N[C@@H](CC(C)C)C(=O)O)[C@@H](C)CC [EK1]
IC50 [1]: 186 nM | IC50 [2]: 268 nM | IC50 [3]: 257 nM | IC50 [4]: 277 nM | IC50 [5]: 150 nM | IC50 [6]: 995 nM | IC50 [7]: 70.5 nM | IC50 [8]: 297 nM | IC50 [9]: 162 nM | IC50 [10]: 199 nM | IC50 [11]: 342 nM | IC50 [12]: 331 nM | IC50 [13]: 136 nM | IC50 [14]: 473 nM | IC50 [15]: 568 nM | IC50 [16]: 584 nM | IC50 [17]: 233 nM | IC50 [18]: 136 nM | IC50 (SARS-CoV pseudovirus): 841 nM | IC50 (HCoV-NL63 pseudovirus): 1070 nM | IC50 (WIV1 pseudovirus): 2450 nM | IC50 (Rs3367 pseudovirus): 1340 nM

SLDQINVTFLDLEYEMKKLEEAIKKLEESYIDLKEL-GSG-DPEG4-K(palmitic) [EK1-palmitic]
inhibitory activity against coronavirus pseudoviruses [19]: possess inhibitory activity

SLDQINVTFLDLEYEMKKLEEAIKKLEESYIDLKEL-GSGSG-DPEG4-C(cholesterol) [EK1-chol]
inhibitory activity against coronavirus pseudoviruses [19]: possess inhibitory activity
